Reference: PubChem BioAssay (NCI)
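Method: 48-hour compound exposure of cells in 96-well plates, five concentrations, linear interpolation of endpoints. The concentration for full growth arrest is given as TGI.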

Columns and labels:
Assay in all cases: DTP human tumour cell line panel, 48 h
RPMI-8226 leukemia = system: RPMI-8226 leukemia
NCI-H23 lung = system: NCI-H23 lung
UACC-62 melanoma = system: UACC-62 melanoma
MALME-3M melanoma = system: MALME-3M melanoma
SNB-19 CNS = system: SNB-19 CNS
CAKI-1 renal = system: CAKI-1 renal
HL-60(TB) leukemia = system: HL-60(TB) leukemia
K-562 leukemia = system: K-562 leukemia
SR leukemia = system: SR leukemia
HT29 colon = system: HT29 colon
HCC-2998 colon = system: HCC-2998 colon
SF-295 CNS = system: SF-295 CNS
NCI-H226 lung = system: NCI-H226 lung
RXF 393 renal = system: RXF 393 renal
SW-620 colon = system: SW-620 colon
SF-539 CNS = system: SF-539 CNS
CCRF-CEM leukemia = system: CCRF-CEM leukemia
SF-268 CNS = system: SF-268 CNS
DMS 114 small cell lung = system: DMS 114 small cell lung
TK-10 renal = system: TK-10 renal
OVCAR-4 ovarian = system: OVCAR-4 ovarian
ACHN renal = system: ACHN renal
HCT-116 colon = system: HCT-116 colon
COLO 205 colon = system: COLO 205 colon
SK-MEL-5 melanoma = system: SK-MEL-5 melanoma
786-0 renal = system: 786-0 renal
OVCAR-3 ovarian = system: OVCAR-3 ovarian
A549 NSCLC = system: A549 NSCLC
IGROV1 ovarian = system: IGROV1 ovarian
LOX IMVI melanoma = system: LOX IMVI melanoma
UACC-257 melanoma = system: UACC-257 melanoma
SNB-78 CNS = system: SNB-78 CNS
SNB-75 CNS = system: SNB-75 CNS
U251 CNS = system: U251 CNS
UO-31 renal = system: UO-31 renal
LXFL 529 NSCLC = system: LXFL 529 NSCLC
HCT-15 colon = system: HCT-15 colon
KM20L2 colon = system: KM20L2 colon
SK-OV-3 ovarian = system: SK-OV-3 ovarian
DLD-1 colon = system: DLD-1 colon
NCI-H522 lung = system: NCI-H522 lung
SN12C renal = system: SN12C renal
MOLT-4 leukemia = system: MOLT-4 leukemia
M14 melanoma = system: M14 melanoma
SK-MEL-28 melanoma = system: SK-MEL-28 melanoma
NCI-H460 lung = system: NCI-H460 lung
HOP-92 NSCLC = system: HOP-92 NSCLC
HOP-62 NSCLC = system: HOP-62 NSCLC
A498 renal = system: A498 renal
XF 498 CNS = system: XF 498 CNS
EKVX NSCLC = system: EKVX NSCLC
M19-MEL melanoma = system: M19-MEL melanoma
OVCAR-5 ovarian = system: OVCAR-5 ovarian
KM12 colon = system: KM12 colon
SK-MEL-2 melanoma = system: SK-MEL-2 melanoma
OVCAR-8 ovarian = system: OVCAR-8 ovarian
DMS 273 small cell lung = system: DMS 273 small cell lung

Measured: TGI

O=C1NC2C(=O)N(Cc3ccccc3)C(=O)C2N1 (configuration not stated)
> 100 µM: RPMI-8226 leukemia | NCI-H23 lung | UACC-62 melanoma | MALME-3M melanoma | SNB-19 CNS | CAKI-1 renal | HL-60(TB) leukemia | K-562 leukemia | SR leukemia | HT29 colon | HCC-2998 colon | SF-295 CNS | NCI-H226 lung | RXF 393 renal | SW-620 colon | SF-539 CNS | CCRF-CEM leukemia | SF-268 CNS | DMS 114 small cell lung | TK-10 renal | OVCAR-4 ovarian | ACHN renal | HCT-116 colon | COLO 205 colon | SK-MEL-5 melanoma | 786-0 renal | OVCAR-3 ovarian | A549 NSCLC | IGROV1 ovarian | LOX IMVI melanoma | UACC-257 melanoma | SNB-78 CNS | SNB-75 CNS | U251 CNS | UO-31 renal | LXFL 529 NSCLC | HCT-15 colon | KM20L2 colon | SK-OV-3 ovarian | DLD-1 colon | NCI-H522 lung | SN12C renal | MOLT-4 leukemia | M14 melanoma | SK-MEL-28 melanoma | NCI-H460 lung | HOP-92 NSCLC | HOP-62 NSCLC | A498 renal | XF 498 CNS | EKVX NSCLC | M19-MEL melanoma | OVCAR-5 ovarian | KM12 colon

COc1ccc(C2C(Cl)C(=O)N2NC(=O)c2ccc(N)cc2)cc1 (configuration not stated)
> 100 µM: RPMI-8226 leukemia | NCI-H23 lung | UACC-62 melanoma | MALME-3M melanoma | SNB-19 CNS | CAKI-1 renal | HL-60(TB) leukemia | K-562 leukemia | HT29 colon | HCC-2998 colon | SF-295 CNS | NCI-H226 lung | SK-MEL-2 melanoma | SW-620 colon | SF-539 CNS | CCRF-CEM leukemia | DMS 114 small cell lung | TK-10 renal | OVCAR-4 ovarian | ACHN renal | HCT-116 colon | COLO 205 colon | SK-MEL-5 melanoma | 786-0 renal | OVCAR-3 ovarian | A549 NSCLC | IGROV1 ovarian | LOX IMVI melanoma | UACC-257 melanoma | SNB-78 CNS | SNB-75 CNS | U251 CNS | UO-31 renal | OVCAR-8 ovarian | LXFL 529 NSCLC | HCT-15 colon | KM20L2 colon | SK-OV-3 ovarian | DLD-1 colon | NCI-H522 lung | SN12C renal | MOLT-4 leukemia | M14 melanoma | SK-MEL-28 melanoma | NCI-H460 lung | HOP-92 NSCLC | HOP-62 NSCLC | A498 renal | DMS 273 small cell lung | XF 498 CNS | EKVX NSCLC | M19-MEL melanoma | OVCAR-5 ovarian | KM12 colon

O=C1C2c3[nH]c4ccccc4c3C3CCCC3C2C(=O)N1c1ccccc1 (configuration not stated)
> 100 µM: RPMI-8226 leukemia | NCI-H23 lung | UACC-62 melanoma | MALME-3M melanoma | K-562 leukemia | SR leukemia | HT29 colon | HCC-2998 colon | SF-295 CNS | RXF 393 renal | SW-620 colon | SF-539 CNS | CCRF-CEM leukemia | SF-268 CNS | DMS 114 small cell lung | TK-10 renal | OVCAR-4 ovarian | ACHN renal | COLO 205 colon | SK-MEL-5 melanoma | 786-0 renal | OVCAR-3 ovarian | A549 NSCLC | IGROV1 ovarian | LOX IMVI melanoma | SNB-78 CNS | SNB-75 CNS | U251 CNS | OVCAR-8 ovarian | LXFL 529 NSCLC | HCT-15 colon | SK-OV-3 ovarian | DLD-1 colon | SN12C renal | MOLT-4 leukemia | M14 melanoma | SK-MEL-28 melanoma | NCI-H460 lung | A498 renal | DMS 273 small cell lung | XF 498 CNS | EKVX NSCLC | M19-MEL melanoma | KM12 colon
